In PubChem BioAssay (NCI):
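The compound was tested at five concentrations on cells cultured in 96-well plates, with a 48-hour exposure period. TGI: concentration producing complete growth inhibition.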

Experiments:
Experiment in all cases: NCI tumour cell line growth inhibition, 48 h
DLD-1 colon = tested on: DLD-1 colon
M19-MEL melanoma = tested on: M19-MEL melanoma
COLO 205 colon = tested on: COLO 205 colon
M14 melanoma = tested on: M14 melanoma
UO-31 renal = tested on: UO-31 renal
K-562 leukemia = tested on: K-562 leukemia
SK-MEL-5 melanoma = tested on: SK-MEL-5 melanoma
SF-295 CNS = tested on: SF-295 CNS
SR leukemia = tested on: SR leukemia
U251 CNS = tested on: U251 CNS
XF 498 CNS = tested on: XF 498 CNS
HOP-62 NSCLC = tested on: HOP-62 NSCLC
OVCAR-5 ovarian = tested on: OVCAR-5 ovarian
SF-539 CNS = tested on: SF-539 CNS
SN12C renal = tested on: SN12C renal
CCRF-CEM leukemia = tested on: CCRF-CEM leukemia
OVCAR-3 ovarian = tested on: OVCAR-3 ovarian
RPMI-8226 leukemia = tested on: RPMI-8226 leukemia
IGROV1 ovarian = tested on: IGROV1 ovarian
LOX IMVI melanoma = tested on: LOX IMVI melanoma
RXF-631 renal = tested on: RXF-631 renal
SF-268 CNS = tested on: SF-268 CNS
NCI-H23 lung = tested on: NCI-H23 lung
SNB-19 CNS = tested on: SNB-19 CNS
MOLT-4 leukemia = tested on: MOLT-4 leukemia
HCT-116 colon = tested on: HCT-116 colon
HOP-18 NSCLC = tested on: HOP-18 NSCLC
UACC-257 melanoma = tested on: UACC-257 melanoma
SNB-78 CNS = tested on: SNB-78 CNS
HCT-15 colon = tested on: HCT-15 colon
HL-60(TB) leukemia = tested on: HL-60(TB) leukemia
SW-620 colon = tested on: SW-620 colon
UACC-62 melanoma = tested on: UACC-62 melanoma
NCI-H226 lung = tested on: NCI-H226 lung
LXFL 529 NSCLC = tested on: LXFL 529 NSCLC
ACHN renal = tested on: ACHN renal
SK-MEL-2 melanoma = tested on: SK-MEL-2 melanoma
HCC-2998 colon = tested on: HCC-2998 colon
HT29 colon = tested on: HT29 colon
CAKI-1 renal = tested on: CAKI-1 renal
786-0 renal = tested on: 786-0 renal
EKVX NSCLC = tested on: EKVX NSCLC
SK-MEL-28 melanoma = tested on: SK-MEL-28 melanoma
A549 NSCLC = tested on: A549 NSCLC
SK-OV-3 ovarian = tested on: SK-OV-3 ovarian
MALME-3M melanoma = tested on: MALME-3M melanoma
KM20L2 colon = tested on: KM20L2 colon
NCI-H522 lung = tested on: NCI-H522 lung
OVCAR-4 ovarian = tested on: OVCAR-4 ovarian
RXF 393 renal = tested on: RXF 393 renal
OVCAR-8 ovarian = tested on: OVCAR-8 ovarian
NCI-H460 lung = tested on: NCI-H460 lung
KM12 colon = tested on: KM12 colon

`COc1ccc(-c2onc(-c3c(C)cc(C)cc3C)c2C2=NCCCN2)cc1` gave a TGI (DLD-1 colon) greater than 100 µM, a TGI (M19-MEL melanoma) greater than 100 µM and a TGI (COLO 205 colon) greater than 100 µM. The TGI (M14 melanoma) was 40.8 µM, the TGI (UO-31 renal) was greater than 100 µM and the TGI (K-562 leukemia) was greater than 100 µM. For the same molecule, the TGI (SK-MEL-5 melanoma) was 60.9 µM, the TGI (SF-295 CNS) was 56.6 µM and the TGI (SR leukemia) was greater than 100 µM. For the same molecule, the TGI (U251 CNS) was 57.9 µM, the TGI (XF 498 CNS) was greater than 100 µM and the TGI (HOP-62 NSCLC) was greater than 100 µM. It also gave a TGI (OVCAR-5 ovarian) greater than 100 µM, a TGI (SF-539 CNS) of 53.7 µM and a TGI (SN12C renal) greater than 100 µM. It also gave a TGI (CCRF-CEM leukemia) greater than 100 µM, a TGI (OVCAR-3 ovarian) greater than 100 µM and a TGI (RPMI-8226 leukemia) of 86.5 µM. It also gave a TGI (IGROV1 ovarian) greater than 100 µM, a TGI (LOX IMVI melanoma) greater than 100 µM and a TGI (RXF-631 renal) greater than 100 µM. For the same molecule, the TGI (SF-268 CNS) was greater than 100 µM, the TGI (NCI-H23 lung) was greater than 100 µM and the TGI (SNB-19 CNS) was greater than 100 µM. For the same molecule, the TGI (MOLT-4 leukemia) was greater than 100 µM, the TGI (HCT-116 colon) was greater than 100 µM and the TGI (HOP-18 NSCLC) was greater than 100 µM. For the same molecule, the TGI (UACC-257 melanoma) was 70.1 µM, the TGI (SNB-78 CNS) was greater than 100 µM and the TGI (HCT-15 colon) was greater than 100 µM. It also gave a TGI (HL-60(TB) leukemia) of 38.6 µM, a TGI (SW-620 colon) greater than 100 µM and a TGI (UACC-62 melanoma) greater than 100 µM. It also gave a TGI (NCI-H226 lung) greater than 100 µM, a TGI (LXFL 529 NSCLC) greater than 100 µM and a TGI (ACHN renal) greater than 100 µM. It also gave a TGI (SK-MEL-2 melanoma) of 97.7 µM, a TGI (HCC-2998 colon) greater than 100 µM and a TGI (HT29 colon) greater than 100 µM. The TGI (CAKI-1 renal) was 44.8 µM, the TGI (786-0 renal) was greater than 100 µM and the TGI (EKVX NSCLC) was greater than 100 µM. The TGI (SK-MEL-28 melanoma) was greater than 100 µM, the TGI (A549 NSCLC) was greater than 100 µM and the TGI (SK-OV-3 ovarian) was greater than 100 µM. It also gave a TGI (MALME-3M melanoma) greater than 100 µM, a TGI (KM20L2 colon) greater than 100 µM and a TGI (NCI-H522 lung) of 35.5 µM. It also gave a TGI (OVCAR-4 ovarian) greater than 100 µM, a TGI (RXF 393 renal) greater than 100 µM and a TGI (OVCAR-8 ovarian) greater than 100 µM. It also gave a TGI (NCI-H460 lung) greater than 100 µM and a TGI (KM12 colon) greater than 100 µM.
